Test results as given in the supplement of paper PMC11451515.

How the values were obtained:
Conditions in all cases: 48 h
NOMO1 [1] = assay: AUC of viability dose-response curve (% viability x log10 dose units); higher = less sensitive
In short: (§1)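 Viability of medium-adapted leukemia cells was measured by CellTiter-Glo One luminescence after 48 h at 37°C with library compounds in DMSO. Doses were 11 threefold steps from 47 μM to 0.79 nM, in 1536-well plates at 500 or 1000 cells/well. Signals were normalised per plate to DMSO and cell-free wells and fitted with a four-parameter log-logistic model on log10 dose. Area under the curve was integrated by trapezoidal rule, with curves exceeding full viability scaled and failed quality-control curves removed.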

P12-Ichikawa [2] = assay: as above
In short: as §1

NOMO1 [3] = assay: cell viability relative to DMSO control; higher = less cytotoxic
In short: (§2)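 Library compounds in DMSO were pin-dosed in an 11-point threefold series (47 μM to 0.79 nM) onto leukemia cells in 1536-well plates (5 μl). Plates held 500 cells/well of NOMO1 or SEM or 1000 cells/well of P12-Ichikawa, each adapted for at least four passages in each medium. Luminescence was read with CellTiter-Glo One after 48 h at 37°C. Viability means the per-plate percentage relative to DMSO wells, using cell-free wells as background.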

SEM cells [4] = assay: as above
In short: as §2

P12-Ichikawa [5] = assay: as above
In short: as §2

SEM cells [6] = assay: AUC of viability dose-response curve (% viability x log10 dose units); higher = less sensitive
In short: as §1

COc1cc([C@@H]2c3cc4c(cc3[C@H](O)[C@H]3COC(=O)[C@H]23)OCO4)cc(OC)c1OC
AUC of viability dose-response curve
Conditions	HPLM + 10% dialyzed FBS	RPMI 5 mM glucose + 10% FBS	RPMI 5 mM glucose + 10% dialyzed FBS
NOMO1 [1]	170	126	138
P12-Ichikawa [2]	69.5	70.5	75.2

cell viability [%]
Conditions	NOMO1 [3]	P12-Ichikawa [5]	SEM cells [4]
HPLM + 10% dialyzed FBS, 0.000781 µM	82.2	87.8	78.4
HPLM + 10% dialyzed FBS, 0.00234 µM	54.7	39.1	52.4
HPLM + 10% dialyzed FBS, 0.00702 µM	43.6	12.4	20
HPLM + 10% dialyzed FBS, 0.0211 µM	37.9	7.37	21.5
HPLM + 10% dialyzed FBS, 0.0632 µM	24.6	7	12.9
HPLM + 10% dialyzed FBS, 0.19 µM	30.1	8.5	14.8
HPLM + 10% dialyzed FBS, 0.569 µM	33.9	7.63	11.1
HPLM + 10% dialyzed FBS, 1.71 µM	38.5	8.21	10.8
HPLM + 10% dialyzed FBS, 5.12 µM	29.4	6.81	7.23
HPLM + 10% dialyzed FBS, 15.4 µM	30.6	5.69	6.55
HPLM + 10% dialyzed FBS, 46.1 µM	5.9	2.44	3.29
RPMI 5 mM glucose + 10% FBS, 0.000781 µM	76.2	84.9	102
RPMI 5 mM glucose + 10% FBS, 0.00234 µM	92.9	45.4	38.7
RPMI 5 mM glucose + 10% FBS, 0.00702 µM	17.5	15.6	14.9
RPMI 5 mM glucose + 10% FBS, 0.0211 µM	21.1	9.29	18.2
RPMI 5 mM glucose + 10% FBS, 0.0632 µM	12.1	7.32	8.76
RPMI 5 mM glucose + 10% FBS, 0.19 µM	19.2	7.35	10.5
RPMI 5 mM glucose + 10% FBS, 0.569 µM	17.5	6.22	7.96
RPMI 5 mM glucose + 10% FBS, 1.71 µM	18.5	5.7	7.03
RPMI 5 mM glucose + 10% FBS, 5.12 µM	16.4	5.67	4.97
RPMI 5 mM glucose + 10% FBS, 15.4 µM	18.5	4.24	4.12
RPMI 5 mM glucose + 10% FBS, 46.1 µM	5.06	1.48	3.41
RPMI 5 mM glucose + 10% dialyzed FBS, 0.000781 µM	78.5	84	79.2
RPMI 5 mM glucose + 10% dialyzed FBS, 0.00234 µM	89.8	41.4	52.7
RPMI 5 mM glucose + 10% dialyzed FBS, 0.00702 µM	26.2	19.7	16.7
RPMI 5 mM glucose + 10% dialyzed FBS, 0.0211 µM	23.7	11.7	20.1
RPMI 5 mM glucose + 10% dialyzed FBS, 0.0632 µM	16.9	6.34	7.53
RPMI 5 mM glucose + 10% dialyzed FBS, 0.19 µM	24.8	8.83	9.95
RPMI 5 mM glucose + 10% dialyzed FBS, 0.569 µM	20.2	7.96	7.34
RPMI 5 mM glucose + 10% dialyzed FBS, 1.71 µM	18.2	7.78	6.19
RPMI 5 mM glucose + 10% dialyzed FBS, 5.12 µM	17.9	7.21	4.79
RPMI 5 mM glucose + 10% dialyzed FBS, 15.4 µM	18.9	5.34	3.29
RPMI 5 mM glucose + 10% dialyzed FBS, 46.1 µM	6.11	2.45	3.02

O=C1Cc2cc(CCN3CCN(c4nsc5ccccc45)CC3)c(Cl)cc2N1
AUC of viability dose-response curve
Conditions	NOMO1 [1]	P12-Ichikawa [2]	SEM cells [6]
HPLM + 10% dialyzed FBS	444	459	380
RPMI 5 mM glucose + 10% FBS	460	469	366
RPMI 5 mM glucose + 10% dialyzed FBS	457	464	362

CN(C1CCc2c(c3ccccc3n2CC(=O)O)C1)[S+](=O)([O-])c1ccc(F)cc1 (stereo not drawn)
AUC of viability dose-response curve
Conditions	NOMO1 [1]	P12-Ichikawa [2]	SEM cells [6]
HPLM + 10% dialyzed FBS	383	399	461
RPMI 5 mM glucose + 10% FBS	392	401	425
RPMI 5 mM glucose + 10% dialyzed FBS	392	419	454

CCCCc1ccc(N[S+](=O)([O-])c2ccc(C)c(C(=O)N3CCN(c4cccc(C)c4C)CC3)c2)cc1
AUC of viability dose-response curve
Conditions	HPLM + 10% dialyzed FBS	RPMI 5 mM glucose + 10% FBS	RPMI 5 mM glucose + 10% dialyzed FBS
NOMO1 [1]	457	435	473
P12-Ichikawa [2]	468	468	464

Conditions	cell viability [%]
NOMO1 [3], RPMI 5 mM glucose + 10% dialyzed FBS, 0.000781 µM	125
NOMO1 [3], RPMI 5 mM glucose + 10% dialyzed FBS, 0.00234 µM	128
NOMO1 [3], RPMI 5 mM glucose + 10% dialyzed FBS, 0.00702 µM	120
NOMO1 [3], RPMI 5 mM glucose + 10% dialyzed FBS, 0.0211 µM	126
NOMO1 [3], RPMI 5 mM glucose + 10% dialyzed FBS, 0.0632 µM	126
NOMO1 [3], RPMI 5 mM glucose + 10% dialyzed FBS, 0.19 µM	130
NOMO1 [3], RPMI 5 mM glucose + 10% dialyzed FBS, 0.569 µM	130
NOMO1 [3], RPMI 5 mM glucose + 10% dialyzed FBS, 1.71 µM	119
NOMO1 [3], RPMI 5 mM glucose + 10% dialyzed FBS, 5.12 µM	131
NOMO1 [3], RPMI 5 mM glucose + 10% dialyzed FBS, 15.4 µM	126
NOMO1 [3], RPMI 5 mM glucose + 10% dialyzed FBS, 46.1 µM	108
P12-Ichikawa [5], HPLM + 10% dialyzed FBS, 0.000781 µM	125
P12-Ichikawa [5], HPLM + 10% dialyzed FBS, 0.00234 µM	125
P12-Ichikawa [5], HPLM + 10% dialyzed FBS, 0.00702 µM	122
P12-Ichikawa [5], HPLM + 10% dialyzed FBS, 0.0211 µM	96.6
P12-Ichikawa [5], HPLM + 10% dialyzed FBS, 0.0632 µM	118
P12-Ichikawa [5], HPLM + 10% dialyzed FBS, 0.19 µM	125
P12-Ichikawa [5], HPLM + 10% dialyzed FBS, 0.569 µM	121
P12-Ichikawa [5], HPLM + 10% dialyzed FBS, 1.71 µM	122
P12-Ichikawa [5], HPLM + 10% dialyzed FBS, 5.12 µM	120
P12-Ichikawa [5], HPLM + 10% dialyzed FBS, 15.4 µM	105
P12-Ichikawa [5], HPLM + 10% dialyzed FBS, 46.1 µM	106
SEM cells [4], RPMI 5 mM glucose + 10% FBS, 0.000781 µM	120
SEM cells [4], RPMI 5 mM glucose + 10% FBS, 0.00234 µM	124
SEM cells [4], RPMI 5 mM glucose + 10% FBS, 0.00702 µM	138
SEM cells [4], RPMI 5 mM glucose + 10% FBS, 0.0211 µM	17.1
SEM cells [4], RPMI 5 mM glucose + 10% FBS, 0.0632 µM	129
SEM cells [4], RPMI 5 mM glucose + 10% FBS, 0.19 µM	118
SEM cells [4], RPMI 5 mM glucose + 10% FBS, 0.569 µM	137
SEM cells [4], RPMI 5 mM glucose + 10% FBS, 1.71 µM	126
SEM cells [4], RPMI 5 mM glucose + 10% FBS, 5.12 µM	119
SEM cells [4], RPMI 5 mM glucose + 10% FBS, 15.4 µM	106
SEM cells [4], RPMI 5 mM glucose + 10% FBS, 46.1 µM	98.2
SEM cells [4], RPMI 5 mM glucose + 10% dialyzed FBS, 0.000781 µM	117
SEM cells [4], RPMI 5 mM glucose + 10% dialyzed FBS, 0.00234 µM	96.2
SEM cells [4], RPMI 5 mM glucose + 10% dialyzed FBS, 0.00702 µM	127
SEM cells [4], RPMI 5 mM glucose + 10% dialyzed FBS, 0.0211 µM	21.2
SEM cells [4], RPMI 5 mM glucose + 10% dialyzed FBS, 0.0632 µM	118
SEM cells [4], RPMI 5 mM glucose + 10% dialyzed FBS, 0.19 µM	118
SEM cells [4], RPMI 5 mM glucose + 10% dialyzed FBS, 0.569 µM	106
SEM cells [4], RPMI 5 mM glucose + 10% dialyzed FBS, 1.71 µM	117
SEM cells [4], RPMI 5 mM glucose + 10% dialyzed FBS, 5.12 µM	107
SEM cells [4], RPMI 5 mM glucose + 10% dialyzed FBS, 15.4 µM	117
SEM cells [4], RPMI 5 mM glucose + 10% dialyzed FBS, 46.1 µM	84.9

C=CC[N+]1([C@H]2C[C@H]3[C@@H]4CC[C@H]5C[C@H](O)[C@@H](N6CCOCC6)C[C@]5(C)[C@H]4CC[C@]3(C)[C@H]2OC(C)=O)CCCC1
AUC of viability dose-response curve
Conditions	NOMO1 [1]	P12-Ichikawa [2]	SEM cells [6]
HPLM + 10% dialyzed FBS	442	457	462
RPMI 5 mM glucose + 10% FBS	454	455	464
RPMI 5 mM glucose + 10% dialyzed FBS	455	462	465

SEM cells [4], HPLM + 10% dialyzed FBS
Conditions	cell viability [%]
0.000781 µM	130
0.00234 µM	116
0.00702 µM	119
0.0211 µM	125
0.0632 µM	114
0.19 µM	131
0.569 µM	124
1.71 µM	127
5.12 µM	119
15.4 µM	113
46.1 µM	113

O=C1CCC(N2C(=O)c3ccccc3C2=O)C(=O)N1 (stereo not drawn)
AUC of viability dose-response curve
Conditions	NOMO1 [1]	P12-Ichikawa [2]	SEM cells [6]
HPLM + 10% dialyzed FBS	436	443	454
RPMI 5 mM glucose + 10% FBS	437	438	437
RPMI 5 mM glucose + 10% dialyzed FBS	461	450	443

SEM cells [4], RPMI 5 mM glucose + 10% FBS
Conditions	cell viability [%]
0.000781 µM	106
0.00234 µM	114
0.00702 µM	115
0.0211 µM	112
0.0632 µM	102
0.19 µM	94.6
0.569 µM	98.2
1.71 µM	111
5.12 µM	101
15.4 µM	67.3
46.1 µM	98.9
